Structures are written as SMILES.

For one molecule, IC50 results are on record in paper PMC7419506, “KN3014, a piperidine-containing small compound, inhibits auto-secretion of IL-1β from PBMCs in a patient with Muckle–Wells syndrome” (Scientific Reports, 2020).

This assay has as its target T1, ASC (Homo sapiens, UniProt Q96P20+Q9ULZ3).
T1 construct: gene PYCARD; FLAG-ASC-PYD (N-terminal FLAG-tagged pyrin domain of ASC); with NLRP3 (NLRP3-FL-Btn, C-terminal biotinylated full-length)
Description: ALPHA-screen protein-protein interaction inhibition, wheat germ cell-free synthesized proteins. It is filed as binding. An excerpt: ALPHA-screen protein-protein interaction inhibition, wheat germ cell-free synthesized proteins on ASC | The interaction between NLRP3-FL-Btn and FLAG-ASC-PYD was disrupted by both KN3014 and KN8311 in a dose-dependent manner.
For orientation: Bead proximity is the source of the signal in Alpha formats.

T1 sequence (Q9ULZ3 1-91 limits assumed): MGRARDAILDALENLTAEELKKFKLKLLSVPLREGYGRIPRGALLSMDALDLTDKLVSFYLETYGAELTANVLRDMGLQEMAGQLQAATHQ
T1 sequence (Q96P20 whole entry, the tested form may be a part): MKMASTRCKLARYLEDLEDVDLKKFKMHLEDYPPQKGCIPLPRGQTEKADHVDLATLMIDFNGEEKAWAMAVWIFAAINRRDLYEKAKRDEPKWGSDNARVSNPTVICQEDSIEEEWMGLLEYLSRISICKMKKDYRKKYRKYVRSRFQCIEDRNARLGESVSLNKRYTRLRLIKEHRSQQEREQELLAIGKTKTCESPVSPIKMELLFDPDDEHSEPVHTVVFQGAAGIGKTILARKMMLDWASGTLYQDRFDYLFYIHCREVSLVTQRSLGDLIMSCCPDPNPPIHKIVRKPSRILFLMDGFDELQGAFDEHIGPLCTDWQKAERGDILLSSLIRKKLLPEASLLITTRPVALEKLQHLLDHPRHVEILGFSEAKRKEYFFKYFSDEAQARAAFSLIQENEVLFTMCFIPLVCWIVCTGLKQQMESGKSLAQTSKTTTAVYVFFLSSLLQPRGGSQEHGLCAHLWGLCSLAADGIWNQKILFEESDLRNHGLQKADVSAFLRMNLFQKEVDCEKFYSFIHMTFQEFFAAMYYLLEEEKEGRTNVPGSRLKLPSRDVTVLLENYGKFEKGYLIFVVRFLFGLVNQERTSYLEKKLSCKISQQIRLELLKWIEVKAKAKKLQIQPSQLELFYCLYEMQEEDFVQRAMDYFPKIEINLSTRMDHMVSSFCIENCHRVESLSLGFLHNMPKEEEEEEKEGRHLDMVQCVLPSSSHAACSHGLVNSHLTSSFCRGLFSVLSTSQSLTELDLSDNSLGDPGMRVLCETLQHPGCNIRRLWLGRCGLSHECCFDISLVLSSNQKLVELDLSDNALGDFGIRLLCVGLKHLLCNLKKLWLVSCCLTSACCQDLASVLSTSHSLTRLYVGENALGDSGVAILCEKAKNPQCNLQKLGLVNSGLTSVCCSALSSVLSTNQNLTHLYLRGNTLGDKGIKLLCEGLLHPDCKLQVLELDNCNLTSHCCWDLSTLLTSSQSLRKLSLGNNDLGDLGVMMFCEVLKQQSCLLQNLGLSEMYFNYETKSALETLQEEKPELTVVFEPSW

Consider `Cc1ccccc1OCC(=O)NCC(c1ccc2c(c1)CCCN2C)N1CCCCC1` (stereo not shown) [KN3014, N-(2-(1-methyl-1,2,3,4-tetrahydroquinolin-6-yl)-2-(piperidin-1-yl)ethyl)-2-(o-tolyloxy)acetamide], for which the IC50 amounted to 14.6 µM.

One may read the IC50 as the concentration that gives 50% inhibition. Read a high IC50 as weaker potency.
